Where a name gives a salt, the structure may show the parent alone.
System: ST2 cells, murine bone marrow-derived stromal cells
Assay: Osteoblast differentiation test (ALP activity)
Assay type: cell-based
Settings: Mus musculus, ST-2, 96 h, at 0.1 μg/mL, control group (0.1% DMSO) = 100%, four days of culturing, read-out: alkaline phosphatase activity
Procedure: ST2 cells, murine bone marrow-derived stromal cells, (obtained from RIKEN) were used.
In this test, α-MEM media (obtained from GIBCO BRL Cat. No. 10370-021) containing 10% (v/v) of inactivated calf serum (obtained from Hyclone Laboratories, Inc.) and 1% (v/v) of Penicillin-Streptomycin Liquid (obtained from GIBCO BRL Cat. No. 15140-122) (hereinbelow, abbreviated as 10%-FBS-αMEM) were used. In this test, all culturing was performed in a CO2 incubator (37° C., 95% humidity, 5% CO2).
The aforementioned cells were detached with 2 mL of a 0.25% trypsin solution (obtained from GIBCO BRL Cat. No. 15050-065) and dispersed in 10 mL of 10%-FBS-αMEM. Subsequently, the cells were collected by centrifugation (25° C., 800 rpm, five minutes). Then, a cell suspension containing 40000 of the cells/mL of 10%-FBS-αMEM was prepared. The cell suspension was then dispensed into 96-well plates (the product of Falcon), 100 μL per well, at a density of 4000 cells/well, followed by culturing for 24 hours. To the wells, except for the below-described well containing a control group, the compound was dispensed at final concentrations of 0.01, 0.03, 0.1, and 0.3 μg/ml. To the well of a control group, DMSO was dispensed at a final concentration of 0.1% (v/v). After four days of culturing, the activity of alkaline phosphatase (ALP) was measured in each group.
The measurement of ALP activity was performed as follows. That is, the medium in each well of the culture plates was completely removed. Each well was then washed by dispensing 100 μL of Dulbecco's phosphate buffer (obtained from GIBCO BRL Cat. No. 14190-144) and then removing it. A cell lysate solution containing 10 mM MgCl2 and 2% (v/v) TritonX-100 (Sigma) was prepared and dispensed at 50 μL/well, followed by stirring at room temperature for five minutes. An ALP substrate solution containing 50 mM diethanolamine (Wako Pure Chemical Industries, Ltd., Cat. No. 099-03112) and 20 mM p-nitrophenyl phosphate (Wako Pure Chemical Industries, Ltd., Cat. No. 147-02343) was prepared and dispensed at 50 μL/well, and the plates were left to stand at room temperature for 10 minutes. Subsequently, absorbance was measured by a microplate reader (Bio-Rad Laboratories, Inc.). Setting the measurement value of the control group of each plate at 100%, alkaline phosphatase activity (increase (%)) in the test compound-addition group was calculated, which was assessed as the degree of osteoblast differentiation.

`OCCOCCNc1ccc(-n2cnc3ccccc32)cc1` [Example 3, 2-(2-{[4-(1H-Benzimidazol-1-yl)phenyl]amino}ethoxy)ethanol] was tested, and the activity at 0.1 µg/mL was ≥ 200%.
With `OCCNc1ccc(-n2cnc3ccc(Cl)cc32)cc1` [Example 4, 2-{[4-(6-Chloro-1H-benzimidazol-1-yl)phenyl]amino}ethanol hydrochloride] the activity at 0.1 µg/mL was ≥ 200%.
In the case of `COc1ccc2c(c1)ncn2-c1ccc(NCCO)cc1` [Example 5, 2-{[4-(5-Methoxy-1H-benzimidazol-1-yl)phenyl]amino}ethanol hydrochloride], the activity at 0.1 µg/mL is reported as ≥ 200%.
For `COCCNc1ccc(-n2cnc3ccccc32)cc1` [Example 6], the activity at 0.1 µg/mL was ≥ 200%.
For `OCCOc1ccc(-c2cnc3ccc(F)cn23)cc1` [Example 7, 2-[4-(6-Fluoroimidazo[1,2-a]pyridin-3-yl)phenoxy]ethanol], the activity at 0.1 µg/mL was ≥ 200%.
For `OCCOc1ccc(-c2cnc3ccc(-c4cc[nH]c4)cn23)cc1` [Example 8, 2-{4-[6-(1H-Pyrrol-3-yl)imidazo[1,2-a]pyridin-3-yl]phenoxy}ethanol], the activity at 0.1 µg/mL was ≥ 200%.
With `OCCOc1ccc(-n2cnc3cc(-c4ccncc4)ccc32)cc1` [Example 9, 2-[4-(5-Pyridin-4-yl-1H-benzimidazol-1-yl)phenoxy]ethanol] the activity at 0.1 µg/mL was ≥ 200%.
`CC(=O)N1CC=C(c2ccn3c(N4CCC(OCCO)CC4)cnc3c2)CC1` [Example 10, 2-({1-[7-(1-Acetyl-1,2,3,6-tetrahydropyridin-4-yl)imidazo[1,2-a]pyridin-3-yl]piperidin-4-yl}oxy)ethanol hydrochloride] was tested, and the activity at 0.1 µg/mL was ≥ 200%.
In the case of `OCCOc1ccc(-c2cnn3cc(-c4ccncc4)ccc23)cc1` [Example 11, 2-[4-(6-Pyridin-4-ylpyrazolo[1,5-a]pyridin-3-yl)phenoxy]ethanol], the activity at 0.1 µg/mL is reported as ≥ 200%.
`O=C(O)c1ccc(OCCOc2ccc(-n3cnc4ccccc43)cc2)cc1` [Example 12, 4-{2-[4-(1H-Benzimidazol-1-yl)phenoxy]ethoxy}benzoic acid hydrochloride] was tested, and the activity at 0.1 µg/mL was ≥ 200%.
With `O=C(O)c1ccc(-c2ccc3c(c2)ncn3-c2ccc(OCCO)cc2)cc1` [Example 13, 4-{1-[4-(2-Hydroxyethoxy)phenyl]-1H-benzimidazol-5-yl}benzoic acid] the activity at 0.1 µg/mL was ≥ 200%.
In the case of `CC(=O)Nc1ccc(-c2ccc3c(c2)ncn3-c2ccc(OCCO)cc2)cc1` [Example 14, N-(4-{1-[4-(2-Hydroxyethoxy)phenyl]-1H-benzimidazol-5-yl}phenyl)acetamide], the activity at 0.1 µg/mL is reported as ≥ 200%.
`NC(=O)c1ccc(-c2ccc3c(c2)ncn3-c2ccc(OCCO)cc2)cc1` [Example 15, 4-{1-[4-(2-Hydroxyethoxy)phenyl]-1H-benzimidazol-5-yl}benzamide dihydrochloride] was tested, and the activity at 0.1 µg/mL was ≥ 200%.
For `O=C(c1ccc(-c2ccc3c(c2)ncn3-c2ccc(OCCO)cc2)cn1)N1CCOCC1` [Example 16, 2-(4-{5-[6-(Morpholin-4-ylcarbonyl)pyridin-3-yl]-1H-benzimidazol-1-yl}phenoxy)ethanol], the activity at 0.1 µg/mL was ≥ 200%.
With `O=C(c1ccc(-c2ccn3c(N4CCC(OCCOC5CCOCC5)CC4)cnc3c2)cc1)N1CCOCC1` [Example 17, 7-[4-(Morpholin-4-ylcarbonyl)phenyl]-3-{4-[2-(tetrahydro-2H-pyran-4-yloxy)ethoxy]piperidin-1-yl}imidazo[1,2-a]pyridine] the activity at 0.1 µg/mL was ≥ 200%.
`NC(=O)c1ccc2ncc(-c3ccc(OCCOC4CCOCC4)cc3)n2c1` [Example 19, 3-{4-[2-(Tetrahydro-2H-pyran-4-yloxy)ethoxy]phenyl}imidazo[1,2-a]pyridine-6-carboxamide] was tested, and the activity at 0.1 µg/mL was ≥ 200%.
With `COc1ccc2ncc(-c3ccc(OCCOC4CCOCC4)cc3)n2c1` [Example 20, 6-Methoxy-3-{4-[2-(tetrahydro-2H-pyran-4-yloxy)ethoxy]phenyl}imidazo[1,2-a]pyridine] the activity at 0.1 µg/mL was ≥ 200%.
For `C#Cc1ccc2ncc(-c3ccc(OCCOC4CCOCC4)cc3)n2c1` [Example 21, 6-Ethynyl-3-{4-[2-(tetrahydro-2H-pyran-4-yloxy)ethoxy]phenyl}imidazo[1,2-a]pyridine], the activity at 0.1 µg/mL was ≥ 200%.
`N#Cc1ccc2ncn(-c3ccc(OCCOC4CCOCC4)cc3)c2c1` [Example 24, 1-{4-[2-(Tetrahydro-2H-pyran-4-yloxy)ethoxy]phenyl}-1H-benzimidazole-6-carbonitrile hydrochloride] was tested, and the activity at 0.1 µg/mL was ≥ 200%.
`FC(F)Oc1ccc2ncn(-c3ccc(OCCOC4CCOCC4)cc3)c2c1` [Example 25, 6-(Difluoromethoxy)-1-{4-[2-(tetrahydro-2H-pyran-4-yloxy)ethoxy]phenyl}-1H-benzimidazole hydrochloride] was tested, and the activity at 0.1 µg/mL was ≥ 200%.
With `OCCNc1ccc(-n2cnc3cc(Cl)c(Cl)cc32)cc1` [Example 26] the activity at 0.1 µg/mL was ≥ 200%.
In the case of `COc1ccc2c(c1)ncn2-c1ccc(OCCO)cc1` [Example 27], the activity at 0.1 µg/mL is reported as ≥ 200%.
`COc1cc2ncn(-c3ccc(NCCO)cc3)c2cc1OC` [Example 28] was tested, and the activity at 0.1 µg/mL was ≥ 200%.
With `CCOc1ccc2c(c1)ncn2-c1ccc(OCCO)cc1` [Example 30] the activity at 0.1 µg/mL was ≥ 200%.
`OCCOc1ccc(-n2cnc3ccc(Cl)cc32)cc1` [Example 31] was tested, and the activity at 0.1 µg/mL was ≥ 200%.
For `CCOc1ccn2c(-c3ccc(OCCO)cc3)cnc2c1` [Example 34], the activity at 0.1 µg/mL was ≥ 200%.
For `OCCOc1ccc(-n2cnc3cc4c(cc32)OCCO4)cc1` [Example 35], the activity at 0.1 µg/mL was ≥ 200%.
`OCCOc1ccc(-n2cnc3cc(N4CCOCC4)ccc32)cc1` [Example 36] was tested, and the activity at 0.1 µg/mL was ≥ 200%.
With `OCCOc1ccc(-n2cnc3cc(-c4cncnc4)ccc32)cc1` [Example 38] the activity at 0.1 µg/mL was ≥ 200%.
`CC(=O)N1CCN(c2ccc3c(c2)ncn3-c2ccc(OCCO)cc2)CC1` [Example 40] was tested, and the activity at 0.1 µg/mL was ≥ 200%.
In the case of `OCCOc1ccc(-n2cnc3cc(-c4ccccc4)ccc32)cc1` [Example 41], the activity at 0.1 µg/mL is reported as ≥ 200%.
For `OCCOc1ccc(-n2cnc3cc(-c4cccnc4)ccc32)cc1` [Example 42], the activity at 0.1 µg/mL was ≥ 200%.
For `Cc1cc(-c2ccc3c(c2)ncn3-c2ccc(OCCO)cc2)ccn1` [Example 43], the activity at 0.1 µg/mL was ≥ 200%.
`c1cc(-c2ccc3c(c2)ncn3-c2ccc(OCCOC3CCOCC3)cc2)ccn1` [Example 44] was tested, and the activity at 0.1 µg/mL was ≥ 200%.
With `CS(=O)(=O)N1CCC(OCCOc2ccc(-n3cnc4ccccc43)cc2)CC1` [Example 45] the activity at 0.1 µg/mL was ≥ 200%.
With `CC(=O)N1CCC(OCCOc2ccc(-n3cnc4ccccc43)cc2)CC1` [Example 46] the activity at 0.1 µg/mL was ≥ 200%.
In the case of `OCCOc1ccc(-n2cnc3ccc(F)cc32)cc1` [Example 47], the activity at 0.1 µg/mL is reported as ≥ 200%.
With `Fc1ccc2ncn(-c3ccc(OCCOC4CCOCC4)cc3)c2c1` [Example 48] the activity at 0.1 µg/mL was ≥ 200%.
`c1cc(-n2cnc3cc4c(cc32)OCCO4)ccc1OCCOC1CCOCC1` [Example 49] was tested, and the activity at 0.1 µg/mL was ≥ 200%.
`N#Cc1ccc(-c2ccc3c(c2)ncn3-c2ccc(OCCO)cc2)cc1` [Example 51] was tested, and the activity at 0.1 µg/mL was ≥ 200%.
In the case of `NS(=O)(=O)c1ccc(-c2ccc3c(c2)ncn3-c2ccc(OCCO)cc2)cc1` [Example 52], the activity at 0.1 µg/mL is reported as ≥ 200%.
For `CS(=O)(=O)Nc1ccc(-c2ccc3c(c2)ncn3-c2ccc(OCCO)cc2)cc1` [Example 53], the activity at 0.1 µg/mL was ≥ 200%.
For `OCCOc1ccc(-n2cnc3cc(-c4cn[nH]c4)ccc32)cc1` [Example 54], the activity at 0.1 µg/mL was ≥ 200%.
`O=C(COCCOc1ccc(-n2cnc3ccccc32)cc1)N1CCOCC1` [Example 56] was tested, and the activity at 0.1 µg/mL was ≥ 200%.
`OCCOc1ccc(-n2cnc3cc(-c4cc[nH]c4)ccc32)cc1` [Example 57] was tested, and the activity at 0.1 µg/mL was ≥ 200%.

Source: patent US20130029964A1, “[5, 6] HETEROCYCLIC COMPOUND” (DAIICHI SANKYO COMPANY, LIMITED, priority 2010, published 2013)
